Test results as given in US12371454B2, “Cyclic peptide compound having Kras inhibitory action” (priority 2019, dated 2025).
pIC50: −log10 of the molar value. Positions of bridges follow the written chain, without caps; N, C: chain ends. Non-standard residues stand in square brackets, D forms with d. Residues, ends and D or L forms follow the SMILES beside them. *: point of attachment. hPhe(3,5-F2-4-CF3) = N[C@@H](CCc1cc(F)c(C(F)(F)F)c(F)c1)C(=O)O; hPhe(3-Cl-4-CF3) = N[C@@H](CCc1ccc(C(F)(F)F)c(Cl)c1)C(=O)O; hPhe(3-F,4-CF3) = N[C@@H](CCc1ccc(C(F)(F)F)c(F)c1)C(=O)O; Piperazinyl(4-(3-oxetanyl)) = C1OCC1N1CCN(*)CC1; NMeAbu(4,4,4-F3) = CN[C@@H](CC(F)(F)F)C(=O)O; NMePhe(4-Me) = CN[C@@H](Cc1ccc(C)cc1)C(=O)O; NMeGly(cPent) = CN[C@H](C(=O)O)C1CCCC1; NMeGly(cBu) = CN[C@H](C(=O)O)C1CCC1; NMeCha = CN[C@@H](CC1CCCCC1)C(=O)O; NEtLeu = CCN[C@@H](CC(C)C)C(=O)O; NMeChg = CN[C@H](C(=O)O)C1CCCCC1; NMeI = CC[C@H](C)[C@H](NC)C(=O)O; Piperidide(4-Me) = CC1CCN(*)CC1; NMeD = CN[C@@H](CC(=O)O)C(=O)O; NMeL = CN[C@@H](CC(C)C)C(=O)O; Oxazolidin(3-yl) = C1CN(*)CO1; d(β3hP) = O=C(O)C[C@H]1CCCN1; NMeNva = CCC[C@H](NC)C(=O)O; NMeV = CN[C@H](C(=O)O)C(C)C; d(β3hA) = C[C@@H](N)CC(=O)O; Iva = CC[C@](C)(N)C(=O)O; NMeA = CN[C@@H](C)C(=O)O; Piperidide = C1CCN(*)CC1; Pyrrolidide = C1CCN(*)C1; Ac5c = NC1(C(=O)O)CCCC1; Aze = O=C(O)[C@@H]1CCN1; X14 = CC1(C)CCN(*)C1; NEtG = CCNCC(=O)O; Sar = CNCC(=O)O

What was measured:
[1] = biological target: T1, Kras and SOS1 (biotin-tagged human Kras loaded with GDP, His-tagged human SOS1) (Homo sapiens, UniProt P01116, G12D); experiment: Protein-protein interaction inhibition between Kras and SOS1 (KrasGl2D-SOS PPI) using AlphaScreen; format: binding; conditions: AlphaScreen; biotin-tagged human Kras loaded with GDP, His-tagged human SOS1; read-out: KRAS G12D-SOS PPI IC50
T1 construct: made in house; host or cells: E. coli (stated for Kras only)
In short: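 Binding between SOS1 and Kras is detected as bead-proximity luminescence: illuminate Ni-conjugated donors (680 nm), collect 520-620 nm emission from streptavidin-conjugated acceptors; Kras carries biotin and GDP loaded after purification, SOS1 carries a His tag.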

[2] = tested on: Human pancreatic cancer cell line AsPC-1; experiment: Measurement of AsPC-1 cell growth inhibition (AsPC-1 CGI); format: cell-based; conditions: 96 h
In short: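 AsPC-1 cells in 15% FBS RPMI-1640 were exposed to test compound for 96 hours at 37° C, with CellTiter-Glo as endpoint.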

T1 sequence (P01116 1-188 isoform P01116-2 G12D): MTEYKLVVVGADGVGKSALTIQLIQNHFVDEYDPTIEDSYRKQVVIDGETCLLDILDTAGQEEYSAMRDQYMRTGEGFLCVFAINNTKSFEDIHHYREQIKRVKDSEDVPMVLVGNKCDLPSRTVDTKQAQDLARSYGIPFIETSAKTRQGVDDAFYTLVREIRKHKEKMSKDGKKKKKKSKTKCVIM

Compound	pIC50 [1]	pIC50 [2]
CC[C@H](C)[C@@H]1NC(=O)[C@H](CC(C)C)N(CC)C(=O)C[C@@H](C(=O)N(C)C)N(C)C(=O)[C@H](C2CCCC2)N(C)C(=O)C2(CCCC2)NC(=O)[C@@H]2CCCN2C(=O)[C@H](CCc2ccc(C(F)(F)F)c(F)c2)NC(=O)CN(C)C(=O)[C@H](CC2CCCCC2)N(C)C(=O)[C@@H]2CCN2C(=O)[C@H](C)NC1=O [Compound 1252] ([NEtLeu]IA[Aze][NMeCha][Sar][hPhe(3-F,4-CF3)]P[Ac5c][NMeGly(cPent)][NMeD]-NMe2; lactam N-11)	8.60	6.30 to 7.00
CCC[C@H]1C(=O)N[C@@H]([C@@H](C)CC)C(=O)N(C)CC(=O)N(C)CC(=O)N(C)[C@@H](CC2CCCCC2)C(=O)N(C)CC(=O)N[C@@H](CCc2cc(F)c(C(F)(F)F)c(F)c2)C(=O)N2CCC[C@H]2C(=O)NC2(CCCC2)C(=O)N(C)[C@@H](C2CCCCC2)C(=O)N(C)[C@H](C(=O)N2CCCC2)CC(=O)N1C [Compound 1253] ([NMeNva]I[Sar][Sar][NMeCha][Sar][hPhe(3,5-F2-4-CF3)]P[Ac5c][NMeChg][NMeD]-Pyrrolidide; lactam N-11)	9.09	7.30 to 7.70
CC[C@H](C)[C@@H]1NC(=O)[C@H](CC(C)C)N(C)C(=O)C[C@@H](C(=O)N2CCCCC2)N(C)C(=O)[C@H](C2CCCCC2)N(C)C(=O)C2(CCCC2)NC(=O)[C@@H]2CCCN2C(=O)[C@H](CCc2ccc(C(F)(F)F)c(Cl)c2)NC(=O)CN(C)C(=O)[C@H](CC2CCCCC2)N(C)C(=O)CN(C)C(=O)CN(CC)C1=O [Compound 1255] ([NMeL]I[NEtG][Sar][NMeCha][Sar][hPhe(3-Cl-4-CF3)]P[Ac5c][NMeChg][NMeD]-Piperidide; lactam N-11)	8.85	6.30 to 7.00
CC[C@H](C)[C@@H]1NC(=O)[C@H](CC(C)C)N(C)C(=O)C[C@@H](C(=O)N2CCC(C)(C)C2)NC(=O)[C@H]([C@@H](C)CC)N(C)C(=O)C2(CCCC2)NC(=O)[C@@H]2CCCN2C(=O)[C@H](CCc2ccc(C(F)(F)F)c(Cl)c2)NC(=O)CN(C)C(=O)[C@H](CC2CCCCC2)N(C)C(=O)CN(C)C(=O)CN(C)C1=O [Compound 1273] ([NMeL]I[Sar][Sar][NMeCha][Sar][hPhe(3-Cl-4-CF3)]P[Ac5c][NMeI]D-X14; lactam N-11)	8.14	6.30 to 7.00
CC[C@H](C)[C@@H]1NC(=O)[C@H](C2CCC2)N(C)C(=O)C[C@@H](C(=O)N2CCCC2)N(C)C(=O)[C@H](C2CCCCC2)N(C)C(=O)C2(CCCC2)NC(=O)[C@@H]2CCCN2C(=O)[C@H](CCc2cc(F)c(C(F)(F)F)c(F)c2)NC(=O)CN(C)C(=O)[C@H](CC2CCCCC2)N(C)C(=O)CN(C)C(=O)CN(C)C1=O [Compound 1275] ([NMeGly(cBu)]I[Sar][Sar][NMeCha][Sar][hPhe(3,5-F2-4-CF3)]P[Ac5c][NMeChg][NMeD]-Pyrrolidide; lactam N-11)	9.19	7.30 to 7.70
CC[C@H](C)[C@@H]1NC(=O)[C@H](CC(F)(F)F)N(C)C(=O)C[C@@H](C(=O)N2CCCC2)N(C)C(=O)[C@H](C2CCCCC2)N(C)C(=O)C2(CCCC2)NC(=O)[C@@H]2CCCN2C(=O)[C@H](CCc2cc(F)c(C(F)(F)F)c(F)c2)NC(=O)CN(C)C(=O)[C@H](Cc2ccc(C)cc2)N(C)C(=O)CN(C)C(=O)CN(C)C1=O [Compound 1278] ([NMeAbu(4,4,4-F3)]I[Sar][Sar][NMePhe(4-Me)][Sar][hPhe(3,5-F2-4-CF3)]P[Ac5c][NMeChg][NMeD]-Pyrrolidide; lactam N-11)	9.19	7.30 to 7.70
CC[C@H](C)[C@@H]1NC(=O)[C@H](CC(C)C)N(C)C(=O)C[C@@H](C(=O)N2CCN(C3COC3)CC2)N(C)C(=O)[C@H](C2CCCCC2)N(C)C(=O)C2(CCCC2)NC(=O)[C@@H]2CCCN2C(=O)[C@H](CCc2ccc(C(F)(F)F)c(Cl)c2)NC(=O)CN(C)C(=O)[C@H](CC2CCCCC2)N(C)C(=O)CN(C)C(=O)CN(C)C1=O [Compound 1284] ([NMeL]I[Sar][Sar][NMeCha][Sar][hPhe(3-Cl-4-CF3)]P[Ac5c][NMeChg][NMeD]-{Piperazinyl(4-(3-oxetanyl))}; lactam N-11)	9.16	6.30 to 7.00
CC[C@H](C)[C@@H]1NC(=O)[C@H](CC(C)C)N(C)C(=O)C[C@@H](C(=O)N2CCCCC2)N(C)C(=O)[C@H](C2CCCCC2)N(C)C(=O)[C@](C)(CC)NC(=O)[C@@H]2CCCN2C(=O)[C@H](CCc2ccc(C(F)(F)F)c(Cl)c2)NC(=O)CN(C)C(=O)[C@H](CC2CCCCC2)N(C)C(=O)CN(C)C(=O)CN(C)C1=O [Compound 1302] ([NMeL]I[Sar][Sar][NMeCha][Sar][hPhe(3-Cl-4-CF3)]P[Iva][NMeChg][NMeD]-Piperidide; lactam N-11)	9.12	6.30 to 7.00
CC[C@H](C)[C@@H]1NC(=O)[C@H](CC(C)C)N(C)C(=O)C[C@@H](C(=O)N2CCCCC2)N(C)C(=O)[C@H](C2CCCCC2)N(C)C(=O)C2(CCCC2)NC(=O)[C@@H]2CCCN2C(=O)[C@H](CCc2ccc(C(F)(F)F)c(Cl)c2)NC(=O)CN(C)C(=O)[C@H](CC2CCCCC2)N(C)C(=O)CN(C)C(=O)CNC1=O [Compound 1315] ([NMeL]IG[Sar][NMeCha][Sar][hPhe(3-Cl-4-CF3)]P[Ac5c][NMeChg][NMeD]-Piperidide; lactam N-11)	9.00	6.30 to 7.00
CC[C@H](C)[C@@H]1NC(=O)[C@H](CC(C)C)N(C)C(=O)C[C@@H](C(=O)N2CCC(C)(C)C2)N(C)C(=O)[C@H](C(C)C)N(C)C(=O)C2(CCCC2)NC(=O)[C@@H]2CCCN2C(=O)[C@H](CCc2ccc(C(F)(F)F)c(Cl)c2)NC(=O)CN(C)C(=O)[C@H](CC2CCCCC2)N(C)C(=O)[C@@H]2CCN2C(=O)[C@H](C)N(C)C1=O [Compound 1323] ([NMeL]I[NMeA][Aze][NMeCha][Sar][hPhe(3-Cl-4-CF3)]P[Ac5c][NMeV][NMeD]-X14; lactam N-11)	8.37	6.30 to 7.00
CC[C@H](C)[C@@H]1NC(=O)[C@H](CC(C)C)N(C)C(=O)C[C@@H](C(=O)N2CCOC2)N(C)C(=O)[C@H](C(C)C)N(C)C(=O)C2(CCCC2)NC(=O)[C@@H]2CCCN2C(=O)[C@H](CCc2ccc(C(F)(F)F)c(Cl)c2)NC(=O)CN(C)C(=O)[C@H](CC2CCCCC2)N(C)C(=O)[C@@H]2CCN2C(=O)[C@H](C)N(C)C1=O [Compound 1329] ([NMeL]I[NMeA][Aze][NMeCha][Sar][hPhe(3-Cl-4-CF3)]P[Ac5c][NMeV][NMeD]-{Oxazolidin(3-yl)}; lactam N-11)	8.77	6.30 to 7.00
CC[C@H](C)[C@@H]1NC(=O)[C@H](CC(C)C)N(C)C(=O)C[C@H]2CCCN2C(=O)[C@H](C(C)C)N(C)C(=O)C2(CCCC2)NC(=O)[C@@H]2CCCN2C(=O)[C@H](CCc2ccc(C(F)(F)F)c(Cl)c2)NC(=O)CN(C)C(=O)[C@H](CC2CCCCC2)N(C)C(=O)[C@@H]2CCN2C(=O)[C@H](C)N(C)C1=O [Compound 1332] (cyclo([Ac5c][NMeV][d(β3hP)][NMeL]I[NMeA][Aze][NMeCha][Sar][hPhe(3-Cl-4-CF3)]P))	7.64	6.30 to 7.00
CC[C@H](C)[C@@H]1NC(=O)[C@H](CC(C)C)N(C)C(=O)C[C@@H](C(=O)N2CCC(C)CC2)N(C)C(=O)[C@H](C2CCCCC2)N(C)C(=O)C2(CCCC2)NC(=O)[C@@H]2CCCN2C(=O)[C@H](CCc2ccc(C(F)(F)F)c(Cl)c2)NC(=O)CN(C)C(=O)[C@H](CC2CCCCC2)N(C)C(=O)CN(C)C(=O)CN(C)C1=O [Compound 1347] ([NMeL]I[Sar][Sar][NMeCha][Sar][hPhe(3-Cl-4-CF3)]P[Ac5c][NMeChg][NMeD]-{Piperidide(4-Me)}; lactam N-11)	8.89	6.30 to 7.00
CC[C@H](C)[C@@H]1NC(=O)[C@H](CC(C)C)N(C)C(=O)C[C@@H](C(=O)N2CCCCC2)N(C)C(=O)[C@H](C(C)C)N(C)C(=O)C2(CCCC2)NC(=O)[C@@H]2CCCN2C(=O)[C@H](CCc2ccc(C(F)(F)F)c(F)c2)NC(=O)CN(C)C(=O)[C@H](CC2CCCCC2)N(C)C(=O)CN(C)C(=O)CN(C)C1=O [Compound 1454] ([NMeL]I[Sar][Sar][NMeCha][Sar][hPhe(3-F,4-CF3)]P[Ac5c][NMeV][NMeD]-Piperidide; lactam N-11)	7.96	6.30 to 7.00
CC[C@H](C)[C@@H]1NC(=O)[C@H](CC(C)C)N(C)C(=O)C[C@@H](C)NC(=O)[C@H](C(C)C)N(C)C(=O)C2(CCCC2)NC(=O)[C@@H]2CCCN2C(=O)[C@H](CCc2ccc(C(F)(F)F)c(Cl)c2)NC(=O)CN(C)C(=O)[C@H](CC2CCCCC2)N(C)C(=O)CN(C)C(=O)CN(C)C1=O [Compound 1457] (cyclo([Ac5c][NMeV][d(β3hA)][NMeL]I[Sar][Sar][NMeCha][Sar][hPhe(3-Cl-4-CF3)]P))	7.96	6.30 to 7.00
CC(C)C[C@H]1C(=O)N[C@@H](C(C)C)C(=O)N(C)CC(=O)N(C)CC(=O)N(C)[C@@H](CC2CCCCC2)C(=O)N(C)CC(=O)N[C@@H](CCc2ccc(C(F)(F)F)c(F)c2)C(=O)N2CCC[C@H]2C(=O)NC2(CCCC2)C(=O)N(C)[C@@H](CC(C)C)C(=O)N(C)[C@H](C(=O)N2CCCCC2)CC(=O)N1C [Compound 1458] ([NMeL]V[Sar][Sar][NMeCha][Sar][hPhe(3-F,4-CF3)]P[Ac5c][NMeL][NMeD]-Piperidide; lactam N-11)	8.14	6.30 to 7.00
CC[C@H](C)[C@@H]1NC(=O)[C@H](C)N(C)C(=O)C[C@@H](C)NC(=O)[C@H](C2CCCC2)N(C)C(=O)C2(CCCC2)NC(=O)[C@@H]2CCCN2C(=O)[C@H](CCc2ccc(C(F)(F)F)c(Cl)c2)NC(=O)CN(C)C(=O)[C@H](Cc2ccc(C)cc2)N(C)C(=O)[C@@H]2CCN2C(=O)CN(C)C1=O [Compound 1462] (cyclo([Ac5c][NMeGly(cPent)][d(β3hA)][NMeA]I[Sar][Aze][NMePhe(4-Me)][Sar][hPhe(3-Cl-4-CF3)]P))	9.10	6.30 to 7.00
